Data published in a flash point compilation (Sun et al. 2020).

Tests used:
[1] = not given; remark: listed apart in the source
[2] = not given; remark: listed apart in the source

flash point [°C] | Structure (SMILES) | other results
60.00 | CCCCC=C[Si](Cl)(Cl)Cl [1-Hexenyltrichlorosilane] | 
90.00 | CC(CCl)C[Si](C)(Cl)Cl (configuration not stated) [3-Chloro-2-methylpropylmethyldichlorosilane] | 
45.00 | CO[Si](C)(CCCCl)OC [3-Chloropropylmethyldimethoxysilane] | 
20.00 | COCC(C)O[Si](C)(C)C (configuration not stated) [(1-Methoxy-2-propoxy)trimethylsilane] | 
10.00 | CCN(CC)[Si](C)(C)C [(Diethylamino)trimethylsilane] | 
26.00 | CC[Si](CC)(CC)N(C)C [(N,N-Dimethylamino)triethylsilane] | 
26.00 | CCO[Si](C)(C)CCl [Chloromethyldimethylethoxysilane] | 
24.00 | CC[Si](Cl)(Cl)CC [Dichlorodiethylsilane] | 
43.00 | CCO[Si](CC)(CC)OCC [Diethyldiethoxysilane] | 
15.00 | CC[Si](C)(Cl)CC [Diethylmethylchlorosilane] | 
96.11 | CCO[SiH2]CCCN [Gamma-aminopropylethoxysilane] | 
76.00 | CC[Si](CC)(CC)O[Si](CC)(CC)CC [Hexaethyldisiloxane] | 
64.00 | CCCCCC[SiH](Cl)Cl [Hexyldichlorosilane] | 
12.00 | CCCCCC[SiH3] [Hexylsilane] | 
100.00 | CCCCCCCC[Si](OCC)(OCC)OCC [Octyltriethoxysilane] | 
50.00 | CCO[Si](OCC)(OCC)OCC [Tetraethoxysilane] | 
76.00 | CCC[Si](Cl)(CCC)CCC [Tri-n-propylchlorosilane] | 
43.00 | CCC[SiH](CCC)CCC [Tri-n-propylsilane] | 
30.00 | CC[Si](Cl)(CC)CC [Triethylchlorosilane] | 
-3.00 | CC[SiH](CC)CC [Triethylsilane] | 

More lines, now with the values behind:

Structure (SMILES) | flash point [°C] | other results
C[Si](C)(Cl)O[Si](C)(C)Cl [1,3-Dichlorotetramethyldisiloxane] | 15.00 | 
C=C[Si](C)(C)N[Si](C)(C)C=C [1,3-Divinyltetramethyldisilazane] | 34.00 | 
CC#C[Si](C)(C)C [1-Trimethylsilylpropyne] | -3.00 | 
CO[Si](CCC1CCC2OC2C1)(OC)OC (configuration not stated) [2-(3,4-epoxycyclohexyl)ethyltrimethoxysilane] | 146.00 | 
CCCCCCC(C)O (configuration not stated) [2-Octanol] |  | flash point [1]: 88.00 °C; flash point [2]: 71.0 °C
CCCC(C)O (configuration not stated) [2-Pentanol] |  | flash point [1]: 39.00 °C; flash point [2]: 34.0 °C
ClCCC[Si](Cl)(Cl)Cl [3-Chloropropyltrichlorosilane] | 84.00 | 
CO[Si](CCCOCC1CO1)(OC)OC (configuration not stated) [3-Glycidoxypropyltrimethoxysilane] | 110.00 | 
C=C(C)C(=O)OCCC[Si](OC)(OC)OC [3-Methacryloxypropyltrimethoxysilane] | 92.00 | 
C=CC=CC[Si](C)(C)C [(2,4-Pentadienyl)trimethylsilane] | 18.00 | 
C[Si](C)(C)OC1=CCCC1 [(Cyclopentenyloxy)trimethylsilane] | 38.00 | 
CC(C)N(C(C)C)[Si](C)(C)C [(Diisopropylamino)trimethylsilane] | 28.00 | 
CN(C)[SiH](C)C [(N,N-Dimethylamino)dimethylsilane] | -13.00 | 
CC(=O)OC[Si](C)(C)C [Acetoxymethyltrimethylsilane] | 20.00 | 
C=CC[Si](C)(C)Cl [Allyl Dimethylchlorosilane] | 5.00 | 
C=CCOC(C)=O [Allyl acetate] |  | flash point [1]: 21.00 °C; flash point [2]: 10 °C
C=CC[Si](Cl)(Cl)Cl [Allyltrichlorosilane] | 31.00 | 
C=CC[Si](OC)(OC)OC [Allyltrimethoxysilane] | 46.00 | 
C=CC[Si](C)(C)C [Allyltrimethylsilane] | 7.00 | 
C[Si](C)(C)C[Si](C)(C)C [Bis(trimethylsilyl)methane] | 12.00 | 
C[Si](C)(C)CBr [Bromomethyltrimethylsilane] | 16.00 | 
C[Si](C)(Cl)CCl [Chloromethyldimethylchlorosilane] | 22.00 | 
Cl[Si](Cl)(Cl)C1CCCC1 [Cyclopentyltrichlorosilane] | 77.00 | 
C[Si](C)(C)O[Si](C)(C)O[Si](C)(C)O[Si](C)(C)C [Decamethyltetrasiloxane] | 62.00 | 
Cl[SiH2]Cl [Dichlorosilane] | -37.00 | 
CC(=O)O[Si](C)(C)OC(C)=O [Dimethyldiacetoxysilane] | 37.00 | 

Structure (SMILES) | flash point [°C] | other results
c1ccc([SiH2]c2ccccc2)cc1 [Diphenylsilane] | 98.00 | 
C[Si]1(C)O[Si](C)(C)O[Si](C)(C)O[Si](C)(C)O[Si](C)(C)O[Si](C)(C)O1 [Dodecamethylcyclohexasiloxane] | 93.00 | 
CC[SiH3] [Ethylsilane] | -60.00 | 
CC[Si](OC)(OC)OC [Ethyltrimethoxysilane] | 27.00 | 
C[Si](C)(C)O[Si](C)(C)O[Si](C)(C)O[Si](C)(C)O[Si](C)(C)O[Si](C)(C)O[Si](C)(C)C [Hexadecamethylheptasiloxane] | 133.00 | 
C[Si](C)(C)O[Si](C)(C)C [Hexamethyldisiloxane] | -3.00 | 
C[Si](C)(C)S[Si](C)(C)C [Hexamethyldisilthiane] | 26.00 | 
C[Si](C)(C)I [Iodotrimethylsilane] | 15.00 | 
CO[Si](CC(C)C)(OC)OC [Isobutyltrimethoxysilane] | 42.00 | 
CCCCCCCCCCCC(=O)O [Lauric acid] |  | flash point [2]: 164 °C
COC(C)=O [METHYL ACETATE] |  | flash point [2]: -10.0 °C
Cc1cc(C)cc(C)c1 [Mesitylene] |  | flash point [2]: 44.5 °C
CO[Si](C)(C)C [Methoxytrimethylsilane] | -30.00 | 
CC(=O)O[Si](C)(OC(C)=O)OC(C)=O [Methyltriacetoxysilane] | 85.00 | 
C[Si](Cl)(Cl)Cl [Methyltrichlorosilane] | 3.00 | 
C[Si](C)(C)N1CCOCC1 [N-(Trimethylsilyl)morpholine] | 27.00 | 
CCCCCCCCCOC(C)=O [NONYL ACETATE] |  | flash point [2]: 99.0 °C
CCCCCCCCCCCCCCCCCCC [Nonadecane] |  | flash point [2]: 168 °C
CCCCCCCC(C)C [Nonane, 2-methyl-] |  | flash point [2]: 41 °C
C[Si](C)(C)O[Si](C)(C)O[Si](C)(C)O[Si](C)(C)O[Si](C)(C)O[Si](C)(C)O[Si](C)(C)O[Si](C)(C)C [Octadecamethyloctasiloxane] | 144.00 | 
C[Si]1(C)N[Si](C)(C)N[Si](C)(C)N[Si](C)(C)N1 [Octamethylcyclotetrasilazane] | 66.00 | 
C[Si]1(C)O[Si](C)(C)O[Si](C)(C)O[Si](C)(C)O1 [Octamethylcyclotetrasiloxane] | 57.00 | 
CC(C)CCCCC(C)C [Octane, 2,7-dimethyl-] |  | flash point [2]: 37.8 °C
CCCCCCC(C)C [Octane, 2-methyl-] |  | flash point [2]: 26.0 °C
CCCCCC(C)CC (configuration not stated) [Octane, 3-methyl-] |  | flash point [2]: 25.5 °C
O=C(O)CCCCCC(=O)O [PIMELIC acid] |  | flash point [2]: 215 °C

Structure (SMILES) | flash point [°C] | other results
CCCCCCl [Pentane, 1-chloro-] |  | flash point [2]: 11.0 °C
CCC(C)(C)C(C)(C)C [Pentane, 2,2,3,3-tetramethyl-] |  | flash point [2]: 21.5 °C
CCC(CC)(CC)CC [Pentane, 3,3-diethyl-] |  | flash point [2]: 21 °C
Cc1cccc(O)c1 [Phenol, 3-methyl-] |  | flash point [2]: 86.0 °C
CO[Si](OC)(OC)c1ccccc1 [Phenyltrimethoxysilane] | 85.00 | 
O=C(O)CCCCCC(=O)O [Pimelic acid] |  | flash point [2]: 150.0 °C
CC(=O)C(C)(C)C [Pinacolone] |  | flash point [2]: 9.0 °C
CCC#N [Propanenitrile] |  | flash point [2]: 6.0 °C
CCC=O [Propionaldehyde] |  | flash point [2]: -29.9 °C
Cc1cccc(C)n1 [Pyridine, 2,6-dimethyl-] |  | flash point [2]: 33 °C
Cc1cccnc1 [Pyridine, 3-methyl-] |  | flash point [2]: 36.0 °C
O=C=N[Si](N=C=O)(N=C=O)N=C=O [Tetraisocyanatosilane] | 50.00 | 
C[SiH](C)O[Si](O[SiH](C)C)(O[SiH](C)C)O[SiH](C)C [Tetrakisdimethylsiloxysilane] | 67.00 | 
C=C[Si](C=C)(C=C)C=C [Tetravinylsilane] | 18.00 | 
N#CCCC[Si](Cl)(Cl)Cl [Trichloro(3-cyanopropyl) Silane] | 92.00 | 
Clc1ccc([Si](Cl)(Cl)Cl)cc1 [Trichloro(p-chlorophenyl)silane] | 123.90 | 
C=CO[Si](C)(C)C [Trimethyl(vinyloxy)silane] | -10.00 | 
C=C(C)O[Si](C)(C)C [Trimethyl[(1-methylethenyl)oxy]silane] | -1.00 | 
C[Si](C)(C)Cl [Trimethylchlorosilane] | -18.00 | 
C[Si](C)(C)c1ccccc1 [Trimethylphenylsilane] | 40.00 | 
CCCCCCCCCCC=O [Undecanal] |  | flash point [2]: 96.0 °C
CCCCC(=O)O [Valeric acid] |  | flash point [1]: 96.00 °C; flash point [2]: 86.0 °C
C=COCCCC [n-Butylvinylether] |  | flash point [2]: -1 °C
CCCCCC [n-HEXANE] |  | flash point [2]: -21.6 °C
c1ccc(-c2ccc(-c3ccccc3)cc2)cc1 [p-Terphenyl] |  | flash point [2]: 207 °C
CCC(C)O (configuration not stated) [sec-Butanol] |  | flash point [2]: 23.0 °C
